The subject of one series is tumors. The conditions noted are these: orally administered to mice; Non-patent documents 1 and 2; cited from earlier work.
Another series is described as follows: Tableting property test. The conditions noted are these: average of five tabletings; 5 points surface has gloss, 1 point surface is chipped, 0 point tablets stick to pestle; 1000 kgf, 100 mg tablet. The series is classed as physicochemical. On the procedure: The obtained powdery sample was compression-molded by using a tableting machine (Tableting Machine HT-P18A, Hata Iron Works, Ltd.; tableting diameter, 6.5 mm; tableting pressure, 1000 kgf; tablet weight, 100 mg) to obtain tablets. The obtained tablets were macroscopically observed, and graded according to the following criteria.
5 Points: Surface has gloss.
4 Points: Surface is slightly roughened.
3 Points: Surface is roughened.
2 Points: Surface is slightly chipped.
1 Point: Surface is chipped.
0 Point: Tablets stick to pestle, and cannot be unstuck.
The tableting was performed five times, and averages of the scores of the tablets were calculated.

The test system of a further series is Capan-1. Put plainly: Antitumor activity: cell proliferation inhibition (ATPlite). The series is classed as cell-based. The conditions noted are these: Capan-1, 3000 cells/well, 3 days culture. The protocol: (§1) Cells at the logarithmic phase were inoculated on a 96-well plate at a density of 1000 cells/well (BxPC-3, MIA PaCa-2) or 3000 cells/well (Capan-1), and cultured overnight at 37° C. in a CO2 incubator. On the next day, serially diluted solutions of each test compound were added, and culture was performed for 3 days in an incubator. After completion of the culture, by using a cell proliferation assay kit ATPlite (Perkin Elmer), and a plate reader Envision (Perkin Elmer), emission was measured. Concentrations of the test compounds providing 50% of cell proliferation inhibition (IC50) were calculated by fitting using a sigmoid function. The solutions of the test compounds were prepared by diluting them with PBS (pH 7.4) at 10 mM, and further diluting the 10 mM solutions with PBS (pH 7.4), and used in the test.

In another series the test system is MIA PaCa-2. The description is as above. The conditions noted are these: MIA PaCa-2, 1000 cells/well, 3 days culture. In kind it is cell-based. On the procedure:
as §1

Another series has as its system BxPC-3. Described as above. Particulars: BxPC-3, 1000 cells/well, 3 days culture. In kind it is cell-based. On the procedure:
as §1

Series [1] can be described thus: Flowability test (compaction rate). In kind it is physicochemical. Particulars: powder sieved 177 μm mesh; (compacted − loose bulk density)/compacted bulk density × 100. The text has this: The obtained powdery sample was roughly filled in a glass measuring cylinder (10 cm^3), the upper surface of the powder layer was horizontally smoothened, and the value of the volume was read. The weight of the powdery sample was divided with the volume to obtain loose bulk density (g/cm^3).
Then, the glass measuring cylinder filled with the powdery sample was tapped by using a general powdery characteristic measuring apparatus (Powdertester Type PT-E, Hosokawa Micron CORP.). When the volume of the powder layer no longer changed, the value of the volume was read. The weight of the powdery sample was divided with the volume to obtain compacted bulk density (g/cm^3).
The compaction rate (%) was obtained in accordance with the following equation. Compaction rate (%)=[(Compacted bulk density−Loose bulk density)/Compacted bulk density]×100

Series [2] in a line: Stability test (deliquescence on storage). The series is classed as physicochemical. Particulars: stored 2 weeks, open state, 60° C. and 75% relative humidity, macroscopic observation. On the procedure:
The compounds of Examples 1 and 2 were stored for 2 weeks in an open state under conditions of 60° C. and 75% relative humidity. The test compounds were macroscopically observed after the storage, and presence or absence of deliquescence was examined.

≈ marks a conversion by molar mass, not a printed value.

Procedure for Solubility test in water: Each of the test compounds and the comparative compound was added to water, and the mixture was stirred at room temperature for 24 hours. The insoluble matter was removed by filtration using a membrane filter (0.2 μm). The filtrate was analyzed by high performance liquid chromatography (HPLC) to obtain the solubility.

For `Nc1ccn([C@@H]2S[C@H](CO)[C@@H](O)[C@@H]2F)c(=O)n1` [Comparative compound, 1-(2-deoxy-2-fluoro-4-thio-β-D-arabinofuranosyl)cytosine], the concentration in solution in the series “Solubility test in water” (thermodynamic from solid) (solubility at 24 h) was 2000 µg/mL (≈ 7.65 mM). The antitumor activity entry in the series on tumors is on record as “potent antitumor activity”. In addition, the “Score (tableting property)” value in “Tableting property test” came out at 1.0. Moreover, the IC50 (usually the concentration that gives 50% inhibition) with Capan-1 (Homo sapiens, 72 h) worked out at 35 nM; in the series with MIA PaCa-2 (Homo sapiens, 72 h) it was 382 nM; in the series on BxPC-3 (Homo sapiens, 72 h), 45 nM. Moreover, in series [1], the Compaction rate was determined as 41%.

Consider `CS(=O)(=O)O.Nc1ccn([C@@H]2S[C@H](CO)[C@@H](O)[C@@H]2F)c(=O)n1` [Example 1, methanesulfonate of 1-(2-deoxy-2-fluoro-4-thio-β-D-arabinofuranosyl)cytosine], for which the Solubility in water in “Solubility test in water” (room temperature, stirred 24 hours, 0.2 μm filtration, HPLC) turned out to be 79000 µg/mL. The “Score (tableting property)” value in “Tableting property test” came out at 4.5. The “presence or absence of deliquescence” value in series [2] was “did not deliquesce”. In addition, the half-inhibitory concentration (IC50) in the series with Capan-1 turned out to be 36 nM; in the series on MIA PaCa-2, 373 nM; with BxPC-3, 45 nM. Moreover, the Compaction rate in series [1] is 18%.

As for `Cl.Nc1ccn([C@@H]2S[C@H](CO)[C@@H](O)[C@@H]2F)c(=O)n1` [Example 2, hydrochloride of 1-(2-deoxy-2-fluoro-4-thio-β-D-arabinofuranosyl)cytosine], in “Tableting property test”, the “Score (tableting property)” value is given as 5.0. The “presence or absence of deliquescence” value in series [2] was “did not deliquesce”. The results for the half-inhibitory concentration (IC50) in the series on Capan-1, with MIA PaCa-2 and in the series with BxPC-3 were 31 nM, 417 nM and 41 nM, respectively. This compound came in with a Compaction rate in series [1] of 21%.

(Values after patent publication US9896471B2, “Salt of 1-(2-deoxy-2-fluoro-4-thio-β-D-arabinofuranosyl)cytosine” (FUJIFILM Corporation, priority 2012, dated 2018).)
